In ChEMBL document CHEMBL4673316, “Synthesis and evaluation of a UMI-77-based fluorescent probe for selective detecting Mcl-1 protein and imaging in living cancer cells” (Bioorg Med Chem, 2021):
Active and inactive are the calls of the source. The rule behind the calls is not given here.

Tests used:
[1] = target: T1, Induced myeloid leukemia cell differentiation protein Mcl-1 (Homo sapiens, UniProt Q07820); experiment: Binding affinity to Mcl1 (unknown origin) at 5 uM incubated for 20 mins by fluorescence based assay relative to control
T1 sequence (Q07820 whole entry): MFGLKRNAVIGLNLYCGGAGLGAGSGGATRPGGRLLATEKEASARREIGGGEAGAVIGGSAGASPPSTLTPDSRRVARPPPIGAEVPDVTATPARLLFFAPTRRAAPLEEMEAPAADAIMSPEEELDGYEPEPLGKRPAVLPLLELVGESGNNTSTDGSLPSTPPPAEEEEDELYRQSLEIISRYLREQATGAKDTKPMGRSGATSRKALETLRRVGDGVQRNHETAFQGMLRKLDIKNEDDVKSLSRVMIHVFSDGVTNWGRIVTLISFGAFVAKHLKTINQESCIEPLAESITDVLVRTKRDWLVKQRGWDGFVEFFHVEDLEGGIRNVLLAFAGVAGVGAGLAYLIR

[2] = target: T1, Induced myeloid leukemia cell differentiation protein Mcl-1; experiment: Inhibition of Mcl-1 (unknown origin) using 5-FAM-Bid-BH3 as substrate incubated for 30 mins followed by substrate addition and measured after 20 mins by fluorescence polarization assay
[3] = target: T1, Induced myeloid leukemia cell differentiation protein Mcl-1; experiment: Binding affinity to Mcl1 in human PC-3 cells at 5 uM incubated for 30 mins by fluorescence microscopy analysis; format: cell-based
[4] = Drug localization in mitochondria of human PC-3 cells at 5 uM incubated for 30 mins by MitoTracker Red CMXRos dye and Hoechst 33342 nuclear dye based fluorescence microscopic analysis; format: ADME; details: pc-3, 0.5 h
[5] = target: T1, Induced myeloid leukemia cell differentiation protein Mcl-1; experiment: Binding affinity to Mcl1 (unknown origin) at 5 uM incubated for 20 mins by fluorescence based assay
[6] = target: T1, Induced myeloid leukemia cell differentiation protein Mcl-1; experiment: Binding affinity to Mcl1 in human PC-3 cells at 5 uM incubated for 30 mins by flow cytometry analysis; format: cell-based
[7] = target: T1, Induced myeloid leukemia cell differentiation protein Mcl-1; experiment: Binding affinity to Mcl1 in human PC-3 cells at 5 uM incubated for 30 mins in presence of UMI-77 by flow cytometry analysis; format: cell-based
[8] = target: T1, Induced myeloid leukemia cell differentiation protein Mcl-1; experiment: Binding affinity to Mcl1 in human PC-3 cells at 5 uM incubated for 30 mins in presence of UMI-77 by fluorescence microscopy analysis; format: cell-based
Homo sapiens [9] = organism: Homo sapiens; experiment: Selectivity index, ratio of Ki for Bcl-2 (unknown origin) to Ki for Mcl-1 (unknown origin); details: dose 5.0 µM, time 20.0 min
[10] = Effect on human PC-3 cells with knocked out Mcl1 gene at 5 uM incubated for 30 mins by fluorescence microscopic analysis; format: ADME, cell-based; details: pc-3, 0.5 h
[11] = target: Apoptosis regulator Bcl-2 (Homo sapiens, UniProt P10415); experiment: Inhibition of Bcl2 (unknown origin) using 5-FAM-Bid-BH3 as substrate incubated for 30 mins followed by substrate addition and measured after 20 mins by fluorescence polarization assay
Chain of Apoptosis regulator Bcl-2 (P10415 whole entry): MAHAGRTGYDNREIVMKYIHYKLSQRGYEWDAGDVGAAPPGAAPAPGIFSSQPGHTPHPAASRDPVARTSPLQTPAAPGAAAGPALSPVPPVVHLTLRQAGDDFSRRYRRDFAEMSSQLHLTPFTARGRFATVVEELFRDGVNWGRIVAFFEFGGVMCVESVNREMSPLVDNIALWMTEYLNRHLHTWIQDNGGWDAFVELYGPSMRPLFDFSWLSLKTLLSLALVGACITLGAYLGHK

[12] = target: T1, Induced myeloid leukemia cell differentiation protein Mcl-1; experiment: Binding affinity to Mcl1 (unknown origin) at 5 uM incubated for 20 mins in presence of 5 to 100 uM UMI-77 by fluorescence based assay
Homo sapiens [13] = organism: Homo sapiens; experiment: Selectivity index, ratio of binding for BSA (unknown origin) to binding for Mcl-1 (unknown origin)
[14] = target: T1, Induced myeloid leukemia cell differentiation protein Mcl-1; experiment: Binding affinity to Mcl1 (unknown origin) at 5 uM incubated for 20 mins by fluorescence based assay (reference value: 0.66 %)
[15] = target: T1, Induced myeloid leukemia cell differentiation protein Mcl-1; experiment: Binding affinity to Mcl1 in HUVEC cells at 5 uM incubated for 30 mins by fluorescence microscopy analysis; format: cell-based
PC-3 = experiment: Cytotoxicity against human PC-3 cells assessed as reduction in cell viability at 5 to 50 uM incubated for 1 hr by CCK8 assay; format: cell-based; details: pc-3, 1 h, dose 5-50 µM
HUVEC = experiment: Cytotoxicity against HUVEC cells assessed as reduction in cell viability at 5 to 50 uM incubated for 1 hr by CCK8 assay; format: cell-based; details: human, dose 5-50 µM

fold change (FC) [1] | Ki [2] [µM] | Activity [3] | Drug uptake [4] | Activity [5] | Activity [6] | Activity [7] | Activity [8] | Ratio Ki (Homo sapiens [9]) | Ki [11] [µM] | Activity [12] | Ratio (Homo sapiens [13]) | Activity [14] [%] | Activity [15] | Compound | Activity [10] | Activity (PC-3) | Activity (HUVEC)
5 | 0.12 | Active | Active | Active | Active | inactive | inactive | 5 | 2.2 | inactive | 2 | 6.47 | inactive | CN(C)c1cccc2c(S(=O)(=O)Nc3cc(SCC(=O)O)c(O)c4ccccc34)cccc12 | Non-Toxic | Non-Toxic | Non-Toxic
– | 0.21 | – | – | – | – | – | – | – | 11 | – | – | – | – | O=C(O)CSc1cc(NS(=O)(=O)c2ccc(Br)cc2)c2ccccc2c1O | – | – | –
